Source: patent US20200405697A1, “Antitumor Agent” (Taiho Pharmaceutical Co., Ltd, priority 2017, published 2020)

How the values were obtained:
[1] = system: HCT116 (Human large intestine cancer cell line); assay: Effect of combination of sulfonamide compound and other antitumor agent (CellTiter-Glo, combination index): HCT116; format: cell-based
Method: (§1) Each cell line was seeded at 90 L/well to a 96-well culture plate (Thermo Fisher Scientific, Inc.) according to the above tables. The cell-seeded plate was cultured in an incubator set to 37° C. and 500 CO2. On the day following seeding, varying concentrations of the sulfonamide compound and the other antitumor agent were added in combination to the cells. […] The serial dilutions of each compound, or DW was added at 5μL/well to the plate such that each compound and DW, or the sulfonamide compound and the other antitumor agent were combined. […] The plate after the addition was cultured at 37° C. for 3 days under 5% CO2 conditions.
(§2) Three days later, CellTiter-Glo(R) 2.0 Reagent (Promega Corporation) was added at 100 μL/well, and the amount of luminescence was measured using a plate reader EnSpire(R) Multimode Plate Reader (PerkinElmer Co., Ltd.).
(§3) An average value from 3 wells was calculated as to each drug condition from the obtained data, and cell survival rate normalized against control wells supplemented with the vehicle (DW) was calculated. A Fa (fractional inhibition) value was calculated by subtracting the cell survival rate from 1.

[2] = system: MV-4-11 (Human blood cancer cell line); assay: Effect of combination of sulfonamide compound and other antitumor agent (CellTiter-Glo, combination index): MV-4-11
Method: as §1, §2, §3

[3] = Example Compound 1 341 nM + Prexasertib 7.14 nM, molar ratio 1:0.02093
[4] = Example Compound 1 512 nM + Prexasertib 10.7 nM, molar ratio 1:0.02093
[5] = Example Compound 1 768 nM + AZD6738 508 nM, molar ratio 1:0.6621
[6] = Example Compound 1 768 nM + Prexasertib 16.1 nM, molar ratio 1:0.02093
[7] = Example Compound 1 1150 nM + AZD6738 761 nM, molar ratio 1:0.6621
[8] = Example Compound 1 121 nM + Cytarabine 116 nM, molar ratio 1:0.9614
[9] = Example Compound 1 121 nM + Guadecitabine 11.9 nM, molar ratio 1:0.09807
[10] = Example Compound 1 182 nM + Cytarabine 175 nM, molar ratio 1:0.9614
[11] = Example Compound 1 182 nM + Decitabine 50.2 nM, molar ratio 1:0.2758
[12] = Example Compound 1 182 nM + Fludarabine nucleoside 4110 nM, molar ratio 1:22.56
[13] = Example Compound 1 182 nM + Guadecitabine 17.8 nM, molar ratio 1:0.09807
[14] = Example Compound 1 273 nM + Decitabine 75.3 nM, molar ratio 1:0.2758
[15] = Example Compound 1 273 nM + Fludarabine nucleoside 6160 nM, molar ratio 1:22.56
[16] = Example Compound 1 273 nM + Guadecitabine 26.8 nM, molar ratio 1:0.09807
[17] = Example Compound 1 409 nM + Cytarabine 393 nM, molar ratio 1:0.9614
[18] = Example Compound 1 409 nM + Decitabine 113 nM, molar ratio 1:0.2758
[19] = Example Compound 1 409 nM + Guadecitabine 40.1 nM, molar ratio 1:0.09807
[20] = Example Compound 1 613 nM + Decitabine 169 nM, molar ratio 1:0.2758
[21] = Example Compound 1 613 nM + Decitabine 589 nM, molar ratio 1:0.2758
[22] = Example Compound 1 613 nM + Guadecitabine 60.1 nM, molar ratio 1:0.09807
[23] = Example Compound 1 920 nM + Decitabine 254 nM, molar ratio 1:0.2758
[24] = Example Compound 1 920 nM + Guadecitabine […], molar ratio 1:0.09807

SMILES: Cc1ccc(F)c([C@@H](C)[C@H](NS(=O)(=O)c2ccc(Br)cc2C(N)=O)c2n[nH]c(=O)o2)c1C [Example 1, 5-bromo-2-(N-((1 S,2R)-2-(6-fluoro-2,3-dimethylphenyl)-1-(5-oxo-4,5-dihydro-1,3,4-oxadiazol-2-yl)propyl)sulfamoyl)benzamide]
- CI value [1, 3]: 0.451
- Fa value [1, 3]: 0.6993
- CI value [1, 4]: 0.243
- Fa value [1, 4]: 0.9038
- CI value [1, 5]: 0.264
- Fa value [1, 5]: 0.8782
- CI value [1, 6]: 0.197
- Fa value [1, 6]: 0.9579
- CI value [1, 7]: 0.218
- Fa value [1, 7]: 0.9579
- CI value [2, 8]: 0.683
- Fa value [2, 8]: 0.1611
- CI value [2, 9]: 0.706
- Fa value [2, 9]: 0.2186
- CI value [2, 10]: 0.603
- Fa value [2, 10]: 0.4508
- CI value [2, 11]: 0.643
- Fa value [2, 11]: 0.3873
- CI value [2, 12]: 0.783
- Fa value [2, 12]: 0.1868
- CI value [2, 13]: 0.741
- Fa value [2, 13]: 0.3225
- CI value [2, 14]: 0.680
- Fa value [2, 14]: 0.5342
- CI value [2, 15]: 0.592
- Fa value [2, 15]: 0.8795
- CI value [2, 16]: 0.705
- Fa value [2, 16]: 0.5192
- CI value [2, 17]: 0.538
- Fa value [2, 17]: 0.9443
- CI value [2, 18]: 0.667
- Fa value [2, 18]: 0.7570
- CI value [2, 19]: 0.658
- Fa value [2, 19]: 0.7788
- CI value [2, 20]: 0.672
- Fa value [2, 20]: 0.9292
- CI value [2, 21]: 0.419
- Fa value [2, 21]: 0.9960
- CI value [2, 22]: 0.671
- Fa value [2, 22]: 0.9347
- CI value [2, 23]: 0.666
- Fa value [2, 23]: 0.9900
- CI value [2, 24]: 0.639
- Fa value [2, 24]: 0.9921
